Data as given in US4510140A, “Therapeutically effective ω-(4-(2-pyridyl)-piperazino)-alkanoylanilides” (priority 1981, dated 1985).
Like-named read-outs stand apart in the source and are kept apart here.

Legend:
[1] = system: passive cutaneous anaphylaxis; experiment: PCA Test: passive cutaneous anaphylaxis induced in the rat with homologous antibodies (Goose and Blair); inhibition of spot areas; format: in vivo; conditions: read-out: PCA Test - ED50 (inhibition of spot areas)
Experimental: In order to evaluate the antianaphylactic activity of the subject novel compounds, the method of Goose and Blair was followed, in which passive cutaneous anaphylaxis was induced in the rat with homologous antibodies [Immunology, 16, 749 (1969)]. Female albino rats were immunized intramuscularly with egg albumin and intraperitoneally with Hemophylus pertussis vaccine.
Twelve days after treatment, the animals were bled and the sera thus obtained were injected intradermally into another group of rats. Twenty-four hours later, the animals were challenged with an i.v. solution of ovoalbumin and Evans blue dye, and sacrificed after 30 minutes. The test drugs were administered by different routes of administration and at different times before the challenge. Inhibition of spot areas (ED50) was determined.

[2] = LD50 determined in the mouse (C. S. Weil method); set-up: unit not given here; conditions: in vivo
Source text: Accordingly, the present invention also features pharmaceutical compositions comprising a pharmaceutically effective amount of a compound having the structural formula (I) as above-defined, or a pharmaceutically acceptable salt thereof, in admixture with conventional pharmaceutically acceptable dileunt or carrier. Suitable such carriers and unit dosage amounts will be apparent to those skilled in this art. Compare, for example, Remington's Pharmaceutical Sciences, 4th Edition (1970). The LD50 of the alkanoylanilides according to the invention was determined in the mouse, both in C. S. Weil, following the method describedBiometrics, 8, 249 (1952). The results obtained were as follows, with the designating for the active compounds corresponding to those set forth in the following specific examples: […]

[3] = system: bronchospasm induced by histamine; experiment: Antibronchospastic activity (Konzett and Rossler): inhibition of bronchospasm induced in anaesthetized guinea-pig by histamine; format: in vivo; conditions: Cavia porcellus, iv, 1 min, read-out: ED75 (inhibition of histamine-induced bronchospasm)
Experimental: The antibronchospastic activity was determined according to the method of Konzett and Rossler [Arch. exp. Path. Pharmakol., 195, 71 (1940)], determining the inhibition of bronchospasm induced in anaesthetized guinea-pig by histamine. For this purpose, the bronchospasms were induced by administering intravenously to the animals 0.5-2.5 μg/Kg of hystamine. Inhibition (ED75) was determined one minute after the injection of the drug under test, and the results obtained are reported in the following Table III: […]

[4] = anaesthetized guinea-pig, i.v., histamine 0.5-2.5 μg/Kg i.v., one minute after injection of the drug

Compound | ED50 ([1]; Rattus norvegicus, ip) [µmol/kg] | ED50 ([1]; Rattus norvegicus, po) [µmol/kg] | LD50 ([2]; ip) | LD50 ([2]; po, os) | ED75 [3] [µmol/kg] | ED50 ([1]; po, rat, os) [µmol/kg] | ED75 [3, 4] [µmol/kg] | ED50 ([1]; rat, ip) [µmol/kg]
COc1cccc(N2CCN(CCC(=O)Nc3ccc(N)cc3)CC2)n1 [compound 25] | 110 | 55 | 0.53 | 1.6 | 0.4 | – | – | –
O=C(CCN1CCN(c2ccccn2)CC1)Nc1ccc(NC(=O)Nc2ccccc2)cc1 [compound 8] | – | – | > 2.25 | > 6.7 | – | – | – | –
Cc1ccccc1NC(=O)CCN1CCN(c2ccccn2)CC1 [compound 17] | – | 67 | 1.01 | 1.58 | 0.47 | – | – | –
O=C(CCN1CCN(c2ccccn2)CC1)Nc1ccc(Cl)cc1 [compound 35] | – | 39 | 0.62 | 0.96 | 2.27 | – | – | –
Nc1cccc(NC(=O)CCN2CCN(c3ccccn3)CC2)c1 [compound 23] | – | 170 | 0.9 | 0.85 | 0.61 | – | – | –
CC(=O)c1ccc(OCc2ccccc2)c(NC(=O)CCN2CCN(c3ccccn3)CC2)c1 [compound 5] | 89 | – | 0.91 | 1.21 | 3.89 | – | – | –
CC(O)c1ccc(NC(=O)CCN2CCN(c3ccccn3)CC2)cc1 (stereo not shown) [compound 14] | 32 | 106 | 3.25 | 5.97 | 0.48 | – | – | –
CNC(=O)Nc1ccc(NC(=O)CCN2CCN(c3ccccn3)CC2)cc1 [compound 28] | – | – | > 2.15 | > 6.5 | – | 73 | 0.29 | –
COc1cccc(N2CCN(CCC(=O)Nc3ccccc3[N+](=O)[O-])CC2)n1 [compound 34] | – | – | – | > 7.1 | – | – | – | –
COc1ccc(NC(=O)CCN2CCN(c3ccccn3)CC2)cc1 [compound 3] | 19 | – | 0.71 | 1.16 | 0.24 | – | – | –
O=C(CCN1CCN(c2ccccn2)CC1)Nc1cccc([N+](=O)[O-])c1 [compound 4] | 56 | 68 | 0.42 | 2.07 | 0.37 | – | – | –
Cc1cc(C)c(C)c(NC(=O)CCN2CCN(c3ccccn3)CC2)c1C [compound 15] | 19 | 26 | 0.57 | – | 1.56 | – | – | –
CC(=O)c1ccccc1NC(=O)CCN1CCN(c2ccccn2)CC1 [compound 39] | – | 73 | 2.3 | > 6.91 | 0.89 | – | – | –
O=C(CCN1CCN(c2ccccn2)CC1)Nc1ccc(O)c([N+](=O)[O-])c1 [compound 21] | 270 | 160 | 2.38 | 3.74 | 1.1 | – | – | –
CCOc1ccc(NC(=O)CCN2CCN(c3ccccn3)CC2)cc1 [compound 19] | – | 54 | 0.69 | 0.92 | 0.14 | – | – | –
O=C(CCN1CCN(c2ccccn2)CC1)Nc1ccc([N+](=O)[O-])cc1 [compound 6] | 27 | – | 0.47 | 0.81 | 0.94 | – | – | –
COc1cccc(N2CCN(CCC(=O)Nc3ccc([N+](=O)[O-])cc3)CC2)n1 [compound 31] | – | 130 | – | 4.39 | – | – | – | –
O=C(CCN1CCN(c2ccccn2)CC1)Nc1ccccc1 [compound 16] | 64 | 61 | 1.16 | 1.35 | 1.93 | – | – | –
O=C(CCN1CCN(c2ccccn2)CC1)Nc1c(Cl)cccc1Cl [compound 36] | – | 29 | 0.8 | 1.24 | 0.4 | – | – | –
CC(=O)Nc1ccc(NC(=O)CCN2CCN(c3ccccn3)CC2)cc1 [compound 27] | – | – | – | > 6.81 | – | 92 | 0.97 | 120

Compound | ED50 ([1]; Rattus norvegicus, ip) [µmol/kg] | ED50 ([1]; Rattus norvegicus, po) [µmol/kg] | LD50 ([2]; ip) | LD50 ([2]; po, os) | ED75 [3] [µmol/kg] | ED50 ([1]; po, rat, os) [µmol/kg] | ED75 [3, 4] [µmol/kg] | ED50 ([1]; rat, ip) [µmol/kg]
CSc1ccc(NC(=O)CCN2CCN(c3ccccn3)CC2)cc1 [compound 42] | – | – | – | > 8.4 | – | – | – | –
CCOC(=O)c1ccc(NC(=O)CCN2CCN(c3ccccn3)CC2)cc1 [compound 41] | 220 | 28 | 0.66 | 0.92 | 0.17 | – | – | –
O=C(CCN1CCN(c2ccccn2)CC1)Nc1cccc(C(F)(F)F)c1 [compound 37] | – | – | 0.56 | 1.17 | – | – | – | –
Cc1cccc(C)c1NC(=O)CN1CCN(c2ccccn2)CC1 [compound 1] | 337 | – | 0.9 | – | – | – | – | –
CC1CN(c2ccccn2)CCN1CCC(=O)Nc1ccc([N+](=O)[O-])cc1 (stereo not shown) [compound 30] | – | 230 | 0.42 | 1.2 | 1.75 | – | – | –
O=C(CCN1CCN(c2ccccn2)CC1)Nc1ccccc1[N+](=O)[O-] [compound 29] | – | – | 2.08 | 3.7 | 0.58 | – | – | –
CC(=O)c1ccc(NC(=O)CCN2CCN(c3ccccn3)CC2)cc1 [compound 13] | 104 | – | 0.48 | 1.5 | 0.02 | – | – | –
CCC(=O)Nc1ccc(NC(=O)CCN2CCN(c3ccccn3)CC2)cc1 [compound 11] | 160 | – | 1.05 | 1.53 | 0.23 | – | – | –
O=C(CCN1CCN(c2ccccn2)CC1)Nc1ccccc1Cl [compound 33] | 151 | 47 | 1.29 | 2.64 | 1.12 | – | – | –
CC(=O)c1cccc(NC(=O)CCN2CCN(c3ccccn3)CC2)c1 [compound 40] | – | 73 | 0.68 | 1.11 | 0.2 | – | – | –
Cc1cc(C)c(C)c(NC(=O)CN2CCN(c3ccccn3)CC2)c1C [compound 2] | 212 | – | 0.65 | – | – | – | – | –
Nc1ccc(NC(=O)CCN2CCN(c3ccccn3)CC2)cc1 [compound 7] | 27 | 74 | 1.11 | 1.29 | 0.02 | – | – | –
O=C(CCN1CCN(c2ccccn2)CC1)Nc1cc([N+](=O)[O-])cc([N+](=O)[O-])c1 [compound 32] | – | – | – | 1.57 | 2.4 | – | – | –
N#Cc1ccc(NC(=O)CCN2CCN(c3ccccn3)CC2)cc1 [compound 43] | – | – | 0.39 | 0.62 | – | – | – | –
Nc1ccccc1NC(=O)CCN1CCN(c2ccccn2)CC1 [compound 22] | – | 100 | 3.2 | 2.08 | 1.63 | – | – | –
Cc1cccc(C)c1NC(=O)CCN1CCN(c2ccccn2)CC1 [compound 18] | 81 | 13 | 0.8 | – | 1.57 | – | – | –
CC1CN(c2ccccn2)CCN1CCC(=O)Nc1ccc(N)cc1 (stereo not shown) [compound 24] | – | 39 | 1.18 | 2.97 | 0.59 | – | – | –
CCOC(=O)C(=O)Nc1ccc(NC(=O)CCN2CCN(c3ccccn3)CC2)cc1 [compound 12] | – | – | > 2.35 | > 7.05 | – | 180 | 0.23 | 130
COc1cccc(N2CCN(CCC(=O)Nc3ccccc3N)CC2)n1 [compound 38] | – | 44 | 0.37 | 0.67 | – | – | – | –
O=C(CCN1CCN(c2ccccn2)CC1)Nc1ccc(O)cc1 [compound 20] | – | – | > 2.5 | 5.2 | – | 170 | 0.49 | 120
